This note sets out measurements from article PMC2924647 (The EMBO Journal, 2010).

Like-named read-outs stand apart in the source and are kept apart here.

In test [1] the test system is AC2-HA / RXFP1 signalosome. As to the kind of experiment: AC2-HA co-immunoprecipitation from HEK293 cells co-expressing FLAG-RXFP1. The settings on record: 5 min, n=3.
In test [2] the test system is PDE4D3 / RXFP1 signalosome. As to the kind of experiment: PDE4D3. The settings on record: 5 min, n=3.
The test system of test [3] is RXFP1.
A further test relates to tRXFP1-703. As to the kind of experiment: Single-cell FRET cAMP.
A further test concerns tRXFP1-747. As to the kind of experiment: Single-cell FRET cAMP. Particulars: tRXFP1-747, glEpac2.
The subject of another test is RXFP1 S755A. The test is described as follows: Single-cell FRET cAMP. Particulars: glEpac2.
Test [4] has as its target T1, RXFP1 (Homo sapiens, UniProt Q9HBX9).
T1 sequence (Q9HBX9 1-757): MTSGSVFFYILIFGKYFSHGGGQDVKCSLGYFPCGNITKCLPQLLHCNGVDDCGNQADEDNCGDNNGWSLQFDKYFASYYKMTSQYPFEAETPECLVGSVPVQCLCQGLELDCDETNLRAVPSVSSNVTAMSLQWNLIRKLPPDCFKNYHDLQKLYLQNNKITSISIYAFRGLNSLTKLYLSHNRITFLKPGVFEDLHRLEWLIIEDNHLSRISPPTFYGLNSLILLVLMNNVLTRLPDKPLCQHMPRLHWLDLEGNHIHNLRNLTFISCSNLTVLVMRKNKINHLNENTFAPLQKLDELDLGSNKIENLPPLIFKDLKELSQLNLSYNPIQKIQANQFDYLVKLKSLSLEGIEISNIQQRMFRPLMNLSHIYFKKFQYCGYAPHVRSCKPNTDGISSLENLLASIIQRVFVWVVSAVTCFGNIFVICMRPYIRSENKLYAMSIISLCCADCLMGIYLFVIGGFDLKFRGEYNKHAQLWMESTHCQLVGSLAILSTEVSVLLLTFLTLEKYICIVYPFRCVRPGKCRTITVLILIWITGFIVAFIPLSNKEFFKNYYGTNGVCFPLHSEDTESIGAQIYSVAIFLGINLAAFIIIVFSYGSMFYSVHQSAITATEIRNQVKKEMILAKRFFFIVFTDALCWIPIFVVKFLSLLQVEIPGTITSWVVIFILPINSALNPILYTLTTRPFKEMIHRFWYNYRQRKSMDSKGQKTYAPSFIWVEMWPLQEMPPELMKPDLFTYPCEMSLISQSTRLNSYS
As to the kind of experiment: Single-cell FRET cAMP. Particulars: first phase, biphasic fit, 5 min AUC, glEpac2, HEK293-RXFP1; mean±s.e.m.

Test [5] concerns the target T1, RXFP1. As to the kind of experiment: Single-cell FRET cAMP.
Test [6] deals with T2, RXFP2 (Homo sapiens, UniProt Q8WXD0). As to the kind of experiment: Single-cell FRET cAMP. Particulars: read-out: Relaxin EC50 2; glEpac2, HEK293-RXFP2; 5 min AUC; mean±s.e.m.
Test [7] deals with T2, RXFP2. The test is described as follows: Single-cell FRET cAMP.
Test [8] deals with T1, RXFP1. As to the kind of experiment: Single-cell FRET cAMP. The settings on record: HeLa, forskolin 1 μM, without PTX, glEpac2.
The next test concerns HEK293 cells. As to the kind of experiment: Single-cell FRET control, HEK293 cells expressing pmEpac2 alone. Particulars: no RXFP1, relaxin 1 nM.
In a further test the test system is RXFP1/2. The test is described as follows: Single-cell FRET cAMP. Particulars: relaxin 10 aM–100 μM, RXFP1/2, pmEpac2.
The test system of the next test is RXFP2/1. As to the kind of experiment: Single-cell FRET cAMP.
The target of test [9] is T3, RXFP1 (Rattus norvegicus, UniProt Q6R6I6).
T3 sequence (Q6R6I6 1-758): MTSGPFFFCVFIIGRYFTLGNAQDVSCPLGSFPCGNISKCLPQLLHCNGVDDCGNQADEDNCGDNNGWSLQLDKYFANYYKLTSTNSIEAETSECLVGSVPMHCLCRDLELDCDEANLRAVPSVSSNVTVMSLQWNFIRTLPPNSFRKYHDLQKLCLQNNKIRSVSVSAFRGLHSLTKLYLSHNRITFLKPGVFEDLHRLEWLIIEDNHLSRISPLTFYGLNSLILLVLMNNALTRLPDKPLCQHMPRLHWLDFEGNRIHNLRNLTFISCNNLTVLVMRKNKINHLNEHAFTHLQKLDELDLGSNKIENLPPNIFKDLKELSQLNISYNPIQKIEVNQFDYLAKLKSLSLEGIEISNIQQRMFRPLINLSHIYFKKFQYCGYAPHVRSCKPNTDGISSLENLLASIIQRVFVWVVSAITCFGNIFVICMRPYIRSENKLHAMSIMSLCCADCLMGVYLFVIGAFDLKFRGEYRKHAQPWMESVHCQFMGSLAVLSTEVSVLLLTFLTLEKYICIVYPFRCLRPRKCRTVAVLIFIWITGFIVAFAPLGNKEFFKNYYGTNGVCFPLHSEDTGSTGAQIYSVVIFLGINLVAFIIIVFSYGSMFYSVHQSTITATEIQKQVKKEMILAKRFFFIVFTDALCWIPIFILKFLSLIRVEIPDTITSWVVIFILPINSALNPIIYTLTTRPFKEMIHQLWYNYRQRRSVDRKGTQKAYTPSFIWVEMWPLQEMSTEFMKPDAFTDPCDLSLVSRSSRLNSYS
The test is described as follows: Single-cell FRET cAMP. The settings on record: rat cardiac fibroblasts, forskolin 1 μM, without PTX.

T2 sequence (Q8WXD0 whole entry, species assumed): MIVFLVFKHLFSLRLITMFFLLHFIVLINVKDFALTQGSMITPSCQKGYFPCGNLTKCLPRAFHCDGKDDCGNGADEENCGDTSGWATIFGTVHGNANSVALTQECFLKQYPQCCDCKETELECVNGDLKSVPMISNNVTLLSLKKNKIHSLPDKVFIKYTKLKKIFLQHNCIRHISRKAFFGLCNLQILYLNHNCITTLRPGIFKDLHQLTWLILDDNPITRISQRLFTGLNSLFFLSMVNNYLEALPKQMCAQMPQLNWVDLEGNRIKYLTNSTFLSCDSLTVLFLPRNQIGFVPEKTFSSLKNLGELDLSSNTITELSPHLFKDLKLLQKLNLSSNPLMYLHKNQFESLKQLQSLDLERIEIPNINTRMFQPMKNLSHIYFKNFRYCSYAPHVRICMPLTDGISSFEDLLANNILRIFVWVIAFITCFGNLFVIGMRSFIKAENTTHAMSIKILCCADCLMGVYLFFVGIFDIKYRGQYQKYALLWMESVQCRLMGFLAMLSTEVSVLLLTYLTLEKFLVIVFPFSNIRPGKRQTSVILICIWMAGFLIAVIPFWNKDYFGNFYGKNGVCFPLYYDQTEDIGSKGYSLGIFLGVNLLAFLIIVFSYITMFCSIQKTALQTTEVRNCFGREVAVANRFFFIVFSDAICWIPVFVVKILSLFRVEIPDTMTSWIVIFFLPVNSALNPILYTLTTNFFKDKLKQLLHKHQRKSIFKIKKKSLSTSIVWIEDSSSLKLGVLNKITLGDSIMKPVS
Chain of RXFP2/1 (Q8WXD0 44-397 limits assumed, one chain of several): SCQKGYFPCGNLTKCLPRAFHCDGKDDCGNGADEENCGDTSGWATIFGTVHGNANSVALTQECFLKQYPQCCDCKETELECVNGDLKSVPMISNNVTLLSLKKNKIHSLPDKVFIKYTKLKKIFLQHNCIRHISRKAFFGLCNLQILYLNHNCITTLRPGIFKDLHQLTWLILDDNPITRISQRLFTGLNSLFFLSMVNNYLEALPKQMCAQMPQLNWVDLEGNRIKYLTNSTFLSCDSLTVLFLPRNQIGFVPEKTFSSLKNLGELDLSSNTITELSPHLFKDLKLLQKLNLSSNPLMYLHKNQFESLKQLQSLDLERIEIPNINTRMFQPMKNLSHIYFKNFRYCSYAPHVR

As for Relaxin, the “association of AC2 with RXFP1 / stimulatory sub-complex” value was “reduces the association between RXFP1 and PDE4D3 or AC2” in test [1] (relaxin 10 nM); “not 10 fM” in [1] (relaxin 10 fM). In addition, the “association of PDE4D3 with RXFP1 / regulatory sub-complex” value in [2] (relaxin 10 nM) was “reduces the association between RXFP1 and PDE4D3 or AC2”; in test [2] (relaxin 10 fM), “not 10 fM”. The cAMP response entry with RXFP1 [3] and in the test on HEK293 cells was “no detectable cAMP response” each time. Moreover, in the test with tRXFP1-703 (tRXFP1-703 (truncated following helix 8), glEpac2), the “response to sub-picomolar relaxin” value is listed as “remained responsive to stimulation with sub-picomolar concentrations of relaxin”. For the same substance, the “maximal cAMP response to relaxin” value was “reduced following truncation” in the test with tRXFP1-703 (tRXFP1-703, glEpac2) and “reduced through tRXFP1-747” in the test with tRXFP1-747. Further, the “cAMP response to sub-picomolar relaxin, effect of mutation” value with tRXFP1-747 and in the test with RXFP1 S755A was “no effect” throughout. For the same substance, the “Relaxin EC50 1” value at RXFP1 [4] is given as 140.34±20.73 aM; at RXFP1 [5] (first phase, biphasic fit, 5 min AUC, pmEpac2, HEK293-RXFP1, mean±s.e.m.), 10.93±0.92 aM; in the test on RXFP2/1 (first phase, pmEpac2, RXFP2/1 (RXFP2-ectodomain, RXFP1-transmembrane/C-terminus), mean±s.e.m.) it was 7.86±1.30 aM. Further, on RXFP1 [5] (maximal relaxin 100 nM versus FIP (10 μM forskolin, 100 μM IBMX, 100 nM PGE1)), the “saturation of pmEpac2 sensor / response relative to FIP” value is given as “did not saturate the pmEpac2 sensor”. For the same substance, the EC50 worked out at 0.0577 ± 0.00694 µM on RXFP2 [6]; 0.0181 ± 0.00384 µM on RXFP2 [7] (read-out: Relaxin EC50 2, pmEpac2, HEK293-RXFP2, 5 min AUC, mean±s.e.m.); 0.00033 ± 8e-05 µM in the test on RXFP2/1 (read-out: Relaxin EC50 2, second phase, pmEpac2, RXFP2/1, mean±s.e.m.). On RXFP2 [7] (RXFP2, pmEpac2), the “cellular response to sub-picomolar peptide” value is “no evidence of a cellular response”. In addition, the “cAMP response to relaxin” value on RXFP1 [8] is recorded as “significant concentration-dependent increase in cAMP, which was maintained within the classical relaxin concentration range”. The “biphasic cAMP response” value in the test with RXFP1/2 is reported as “not RXFP1/2”; with RXFP2/1 (relaxin 10 aM–100 μM, RXFP2/1, pmEpac2) it was “a biphasic response was evident”. Besides, the “cAMP accumulation at sub-picomolar concentrations” value in the test on RXFP2/1 (RXFP2/1, pmEpac2) was “increased cAMP accumulation at sub-picomolar concentrations”. Also, at RXFP1 [9], the “cAMP response to sub-picomolar relaxin” value is on record as “significant increase in cAMP, which then declined within the classical concentration range”.
